Patent publication US20070043010A1, “Quinazoline derivatives” (ASTRAZENECA UK LIMITED, priority 2003, published 2007)

Tested on: KB cells
Test: EGFR driven KB cell proliferation assay, Test (b)
Format: cell-based
Details: Homo sapiens, 96 h, EGF 1 ng/ml, 4 days, MTT
Method: This assay measures the ability of a test compound to inhibit the proliferation of KB cells (human naso-pharangeal carcinoma obtained from the American Type Culture Collection (ATCC).
KB cells (human naso-pharangeal carcinoma obtained from the ATCC were cultured in Dulbecco's modified Eagle's medium (DMEM) containing 10% foetal calf serum, 2 mM glutamine and non-essential amino acids at 37° C. in a 7.5% CO2 air incubator. Cells were harvested from the stock flasks using Trypsin/ethylaminediaminetetraacetic acid (EDTA). Cell density was measured using a haemocytometer and viability was calculated using trypan blue solution before being seeded at a density of 1.25×10^3 cells per well of a 96 well plate in DMEM containing 2.5% charcoal stripped serum, 1 mM glutamine and non-essential amino acids at 37° C. in 7.5% CO2 and allowed to settle for 4 hours.
Following adhesion to the plate, the cells are treated with or without EGF (final concentration of 1 ng/ml) and with or without compound at a range of concentrations in dimethylsulfoxide (DMSO) (0.1% fial) before incubation for 4 days. Following the incubation period, cell numbers were determined by addition of 50 μl of 3-(4,5-Dimethylthiazol-2-yl)-2,5-diphenyltetrazolium bromide (MTT) (stock 5 mg/ml) for 2 hours. MTT solution was then tipped off, the plate gently tapped dry and the cells dissolved upon the addition of 100 μl of DMSO.
Absorbance of the solubilised cells was read at 540 nm using a Molecular Devices ThermoMax microplate reader. Inhibition of proliferation was expressed as an IC50 value. This was determined by calculation of the concentration of compound that was required to give 50% inhibition of proliferation. The range of proliferation was calculated from the positive (vehicle plus EGF) and negative (vehicle minus EGF) control values.

## COc1cc2ncnc(Nc3cccc(Cl)c3F)c2cc1O[C@H]1C[C@H](C(=O)NCCNC(C)=O)N(C)C1 [Compound 11-13, (4S)—N-[2-(acetylamino)ethyl]-4-({4-[(3-chloro-2-fluorophenyl)amino]-7-methoxyquinazolin-6-yl}oxy)-1-methyl-D-prolinamide]
  IC50: 144 nM

## COc1cc2ncnc(Nc3cccc(Cl)c3F)c2cc1O[C@H]1C[C@H](C(=O)N[C@H]2COC[C@@H]2O)N(C)C1 [Compound 11-14, (4S)-4-({4-[(3-chloro-2-fluorophenyl)amino]-7-methoxyquinazolin-6-yl}oxy)-N-[(3S,4R)-4-hydroxytetrahydrofuran-3-yl]-1-methyl-D-prolinamide]
  IC50: 139 nM

## COc1cc2ncnc(Nc3cccc(Cl)c3F)c2cc1O[C@@H]1C[C@@H](C(=O)NCCC#N)N(C)C1 [Compound 13-3]
  IC50: 63 nM
